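Following 48 hours of exposure in 96-well plates, responses at five concentrations were used to interpolate endpoints linearly. TGI denotes the concentration required for complete inhibition of growth.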
Legend:
Experiment in all cases: NCI-60 cell line screen, 48 h
786-0 renal = tested on: 786-0 renal
A549 NSCLC = tested on: A549 NSCLC
ACHN renal = tested on: ACHN renal
CAKI-1 renal = tested on: CAKI-1 renal
CCRF-CEM leukemia = tested on: CCRF-CEM leukemia
COLO 205 colon = tested on: COLO 205 colon
DMS 273 small cell lung = tested on: DMS 273 small cell lung
EKVX NSCLC = tested on: EKVX NSCLC
HCC-2998 colon = tested on: HCC-2998 colon
HCT-116 colon = tested on: HCT-116 colon
HCT-15 colon = tested on: HCT-15 colon
HOP-18 NSCLC = tested on: HOP-18 NSCLC
HOP-62 NSCLC = tested on: HOP-62 NSCLC
HT29 colon = tested on: HT29 colon
IGROV1 ovarian = tested on: IGROV1 ovarian
K-562 leukemia = tested on: K-562 leukemia
KM12 colon = tested on: KM12 colon
KM20L2 colon = tested on: KM20L2 colon
LOX IMVI melanoma = tested on: LOX IMVI melanoma
LXFL 529 NSCLC = tested on: LXFL 529 NSCLC
M14 melanoma = tested on: M14 melanoma
MALME-3M melanoma = tested on: MALME-3M melanoma
MOLT-4 leukemia = tested on: MOLT-4 leukemia
NCI-H226 lung = tested on: NCI-H226 lung
NCI-H23 lung = tested on: NCI-H23 lung
NCI-H460 lung = tested on: NCI-H460 lung
NCI-H522 lung = tested on: NCI-H522 lung
OVCAR-3 ovarian = tested on: OVCAR-3 ovarian
OVCAR-4 ovarian = tested on: OVCAR-4 ovarian
OVCAR-5 ovarian = tested on: OVCAR-5 ovarian
OVCAR-8 ovarian = tested on: OVCAR-8 ovarian
RPMI-8226 leukemia = tested on: RPMI-8226 leukemia
RXF 393 renal = tested on: RXF 393 renal
RXF-631 renal = tested on: RXF-631 renal
SF-268 CNS = tested on: SF-268 CNS
SF-295 CNS = tested on: SF-295 CNS
SF-539 CNS = tested on: SF-539 CNS
SK-MEL-2 melanoma = tested on: SK-MEL-2 melanoma
SK-MEL-28 melanoma = tested on: SK-MEL-28 melanoma
SK-MEL-5 melanoma = tested on: SK-MEL-5 melanoma
SK-OV-3 ovarian = tested on: SK-OV-3 ovarian
SN12C renal = tested on: SN12C renal
SNB-19 CNS = tested on: SNB-19 CNS
SNB-75 CNS = tested on: SNB-75 CNS
SNB-78 CNS = tested on: SNB-78 CNS
SW-620 colon = tested on: SW-620 colon
TK-10 renal = tested on: TK-10 renal
U251 CNS = tested on: U251 CNS
UACC-257 melanoma = tested on: UACC-257 melanoma
UACC-62 melanoma = tested on: UACC-62 melanoma
UO-31 renal = tested on: UO-31 renal
XF 498 CNS = tested on: XF 498 CNS
A498 renal = tested on: A498 renal
DLD-1 colon = tested on: DLD-1 colon
DMS 114 small cell lung = tested on: DMS 114 small cell lung
HL-60(TB) leukemia = tested on: HL-60(TB) leukemia
HOP-92 NSCLC = tested on: HOP-92 NSCLC
SR leukemia = tested on: SR leukemia

Measured: TGI

O=C(O)c1ccccc1NS(=O)(=O)c1ccc([N+](=O)[O-])cc1
not listed: A498 renal | DLD-1 colon | DMS 114 small cell lung | HL-60(TB) leukemia | HOP-92 NSCLC | SR leukemia
> 100 µM: all other assays above

C=CCN=C1N=C(C)C(C(=O)OCC)S1 (stereo not given)
> 100 µM: all assays above

Source: PubChem BioAssay (NCI)
